Test results from ChEMBL document CHEMBL1201861, “Genomics of Drug Sensitity in Cancer screening data, Wellcome Trust Sanger Institute”.
pIC50: −log10 of the molar value.

Key:
Type in all cases: functional, cell-based
[1] = tested on: CRO-AP2; assay: SANGER: Inhibition of human CRO-AP2 cell growth in a cell viability assay.
[2] = tested on: ECC12; assay: cells; details: Homo sapiens
Description: SANGER: Inhibition of human ECC12 cell growth in a cell viability assay.

[3] = tested on: NCI-H2107; assay: SANGER: Inhibition of human NCI-H2107 cell growth in a cell viability assay.
[4] = tested on: NCI-H2227; assay: cells; details: Homo sapiens;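 also: growth inhibition of the human cell line, read out with a cell viability assay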
Description: SANGER: Inhibition of human NCI-H2227 cell growth in a cell viability assay.

[5] = tested on: Caov-3 cell line; assay: cells; details: Homo sapiens;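 also: cell growth inhibition read out by a viability assay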
Description: SANGER: Inhibition of human Caov-3 cell growth in a cell viability assay.

[6] = tested on: Caov-4; assay: cells; details: Homo sapiens
Description: SANGER: Inhibition of human Caov-4 cell growth in a cell viability assay.

[7] = tested on: EFE-184; assay: cells; details: Homo sapiens
Description: SANGER: Inhibition of human EFE-184 cell growth in a cell viability assay.

[8] = tested on: EW-7; assay: SANGER: Inhibition of human EW-7 cell growth in a cell viability assay.
[9] = tested on: MES-SA; assay: cells; details: Homo sapiens;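 also: growth inhibition of human MES-SA cells, read out with a cell viability assay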
Description: SANGER: Inhibition of human MES-SA cell growth in a cell viability assay.

[10] = tested on: MFE-296; assay: SANGER: Inhibition of human MFE-296 cell growth in a cell viability assay.
[11] = tested on: NCI-H1618; assay: cells; details: Homo sapiens;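 also: growth inhibition of human NCI-H1618 cells, measured by a cell viability assay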
Description: SANGER: Inhibition of human NCI-H1618 cell growth in a cell viability assay.

[12] = tested on: PLC-PRF-5; assay: cells; details: Homo sapiens;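 also: growth inhibition of human PLC-PRF-5 cells, read out with a viability assay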
Description: SANGER: Inhibition of human PLC-PRF-5 cell growth in a cell viability assay.

[13] = tested on: SK-CO-1; assay: cells; details: Homo sapiens;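 also: growth inhibition of SK-CO-1 cells, determined by a viability readout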
Description: SANGER: Inhibition of human SK-CO-1 cell growth in a cell viability assay.

[14] = tested on: SNG-M; assay: cells; details: Homo sapiens
Description: SANGER: Inhibition of human SNG-M cell growth in a cell viability assay.

[15] = tested on: SNU-475; assay: cells; details: Homo sapiens
Description: SANGER: Inhibition of human SNU-475 cell growth in a cell viability assay.

[16] = tested on: TT; assay: cells; details: Homo sapiens
Description: SANGER: Inhibition of human TT cell growth in a cell viability assay.

[17] = tested on: CCF-STTG1; assay: cells; details: Homo sapiens;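 also: growth inhibition of human CCF-STTG1 cells, determined with a cell viability read-out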
Description: SANGER: Inhibition of human CCF-STTG1 cell growth in a cell viability assay.

[18] = tested on: CP67-MEL; assay: SANGER: Inhibition of human CP67-MEL cell growth in a cell viability assay.
[19] = tested on: KP-N-RT-BM-1; assay: SANGER: Inhibition of human KP-N-RT-BM-1 cell growth in a cell viability assay.
[20] = tested on: D-423MG; assay: cells; details: Homo sapiens
Description: SANGER: Inhibition of human D-423MG cell growth in a cell viability assay.

[21] = tested on: D-566MG; assay: cells; details: Homo sapiens
[22] = tested on: ECC10; assay: cells; details: Homo sapiens;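 also: growth inhibition of ECC10 cells, read out by a cell viability assay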
Description: SANGER: Inhibition of human ECC10 cell growth in a cell viability assay.

[23] = tested on: H-EMC-SS; assay: cells; details: Homo sapiens
Description: SANGER: Inhibition of human H-EMC-SS cell growth in a cell viability assay.

[24] = tested on: H9; assay: cells; details: Homo sapiens
Description: SANGER: Inhibition of human H9 cell growth in a cell viability assay.

[25] = tested on: KNS-62; assay: cells; details: Homo sapiens;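 also: inhibition of cell growth, read out with a cell viability assay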
Description: SANGER: Inhibition of human KNS-62 cell growth in a cell viability assay.

[26] = tested on: NCI-H1048; assay: cells; details: Homo sapiens;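 also: growth inhibition of human NCI-H1048 cells, read out with a cell viability assay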
Description: SANGER: Inhibition of human NCI-H1048 cell growth in a cell viability assay.

[27] = tested on: NCI-H1975; assay: cells; details: Homo sapiens
Description: SANGER: Inhibition of human NCI-H1975 cell growth in a cell viability assay.

[28] = tested on: NCI-H2029; assay: cells; details: Homo sapiens;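 also: Read-out is a viability assay on the cultured cells, and IC50 is the concentration that suppresses cell growth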
Description: SANGER: Inhibition of human NCI-H2029 cell growth in a cell viability assay.

[29] = tested on: NCI-H2291; assay: cells; details: Homo sapiens
Description: SANGER: Inhibition of human NCI-H2291 cell growth in a cell viability assay.

[30] = tested on: OC-314; assay: cells; details: Homo sapiens
Description: SANGER: Inhibition of human OC-314 cell growth in a cell viability assay.

[31] = tested on: RH-18; assay: cells; details: Homo sapiens, Rh18;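 also: growth inhibition of human RH-18 cells, read out with a cell viability assay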
Description: SANGER: Inhibition of human RH-18 cell growth in a cell viability assay.

[32] = tested on: SW 1116; assay: cells; details: Homo sapiens;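 also: growth inhibition of SW1116 cells, read out with a cell viability assay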
Description: SANGER: Inhibition of human SW1116 cell growth in a cell viability assay.

[33] = tested on: SW900; assay: cells; details: Homo sapiens;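 also: IC50 is the concentration that inhibits SW900 cell growth, measured by a cell viability assay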
Description: SANGER: Inhibition of human SW900 cell growth in a cell viability assay.

[34] = tested on: A549; assay: cells; details: Homo sapiens;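 also: growth inhibition of A549 cells, read out with a cell viability assay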
Description: SANGER: Inhibition of human A549 cell growth in a cell viability assay.

[35] = tested on: BT-549; assay: cells; details: Homo sapiens
Description: SANGER: Inhibition of human BT-549 cell growth in a cell viability assay.

[36] = tested on: TGBC11TKB; assay: cells; details: Homo sapiens;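 also: growth inhibition of human TGBC11TKB cells, measured by a cell viability assay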
Description: SANGER: Inhibition of human TGBC11TKB cell growth in a cell viability assay.

[37] = tested on: YH-13; assay: cells; details: Homo sapiens;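 also: cell viability readout of growth suppression in the human YH-13 cell line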
Description: SANGER: Inhibition of human YH-13 cell growth in a cell viability assay.

[38] = tested on: ZR-75-30; assay: cells; details: Homo sapiens;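 also: growth inhibition of ZR-75-30 cells, measured with a cell viability readout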
Description: SANGER: Inhibition of human ZR-75-30 cell growth in a cell viability assay.

[39] = tested on: CFPAC-1; assay: cells; details: Homo sapiens;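 also: cell viability readout used to gauge suppression of CFPAC-1 cell proliferation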
Description: SANGER: Inhibition of human CFPAC-1 cell growth in a cell viability assay.

Nc1ccccc1NC(=O)c1ccc(CNC(=O)OCc2cccnc2)cc1 [ENTINOSTAT]
pIC50 [1]: 6.77
pIC50 [2]: 6.15
pIC50 [3]: 5.87
pIC50 [4]: 5.52

O=S(=O)(O)c1ccc2cc(/N=N/c3cc(S(=O)(=O)O)c4cccnc4c3O)ccc2c1
pIC50 [5]: < 4.80
pIC50 [6]: < 4.80
pIC50 [2]: < 4.80
pIC50 [7]: < 4.80
pIC50 [8]: < 4.80
pIC50 [9]: < 4.80
pIC50 [10]: < 4.80
pIC50 [11]: < 4.80
pIC50 [4]: < 4.80
pIC50 [12]: < 4.80
pIC50 [13]: < 4.80
pIC50 [14]: < 4.80
pIC50 [15]: < 4.80
pIC50 [16]: < 4.80
pIC50 [17]: < 4.80

Cc1ccc(NC(=O)c2ccc(CN3CCN(C)CC3)cc2)cc1Nc1nccc(-c2cccnc2)n1 [IMATINIB]
pIC50 [18]: < 5.70
pIC50 [1]: < 5.70
pIC50 [19]: < 5.70
pIC50 [3]: < 5.70

Cc1ccc(C(=O)Nc2ccc(CN3CCN(C)CC3)c(C(F)(F)F)c2)cc1C#Cc1cnc2cccnn12 [PONATINIB]
pIC50 [5]: < 6.29
pIC50 [6]: < 6.29
pIC50 [2]: < 6.29
pIC50 [7]: < 6.29
pIC50 [8]: < 6.29
pIC50 [9]: 6.62
pIC50 [10]: 6.93
pIC50 [11]: < 6.29
pIC50 [4]: < 6.29
pIC50 [12]: < 6.29
pIC50 [13]: < 6.29
pIC50 [14]: < 6.29
pIC50 [15]: < 6.29
pIC50 [16]: < 6.29
pIC50 [17]: 6.65

COC(=O)[C@H](CCSC)NC(=O)c1ccc(NC[C@@H](N)CS)cc1-c1ccccc1
pIC50 [5]: < 5.99
pIC50 [6]: < 5.99
pIC50 [2]: < 5.99
pIC50 [7]: < 5.99
pIC50 [8]: < 5.99
pIC50 [9]: < 5.99
pIC50 [10]: < 5.99
pIC50 [11]: < 5.99
pIC50 [4]: < 5.99
pIC50 [12]: < 5.99
pIC50 [13]: < 5.99
pIC50 [14]: < 5.99
pIC50 [15]: < 5.99
pIC50 [16]: < 5.99
pIC50 [17]: < 5.99

CN(NC(=O)CC(=O)NN(C)C(=S)c1ccccc1)C(=S)c1ccccc1 [ELESCLOMOL]
pIC50 [20]: 7.92
pIC50 [21]: 7.82
pIC50 [22]: < 6.70
pIC50 [23]: 8.43
pIC50 [24]: 7.24
pIC50 [25]: 8.02
pIC50 [26]: 7.74
pIC50 [27]: < 6.70
pIC50 [28]: < 6.70
pIC50 [29]: < 6.70
pIC50 [30]: 7.48
pIC50 [31]: 7.13
pIC50 [32]: < 6.70
pIC50 [33]: 7.21
pIC50 [34]: 7.71
pIC50 [35]: 7.80
pIC50 [36]: < 6.70
pIC50 [37]: 7.62
pIC50 [38]: 7.32
pIC50 [39]: < 6.70

CC1=C(/C=C/C(C)=C/C=C/C(C)=C/C(=O)O)C(C)(C)CCC1 [TRETINOIN]
pIC50 [20]: < 5.00
pIC50 [21]: < 5.00
pIC50 [22]: 5.62
pIC50 [23]: < 5.00
pIC50 [25]: < 5.00
pIC50 [26]: < 5.00
pIC50 [27]: < 5.00
pIC50 [28]: < 5.00
pIC50 [29]: < 5.00
pIC50 [30]: < 5.00
pIC50 [31]: < 5.00
pIC50 [32]: < 5.00
pIC50 [33]: < 5.00
pIC50 [34]: < 5.00
pIC50 [35]: < 5.00
pIC50 [36]: < 5.00
pIC50 [37]: < 5.00
pIC50 [38]: < 5.00
pIC50 [39]: < 5.00

NC(=O)c1ccc(N(C(N)=O)c2c(F)cccc2F)nc1-c1ccc(F)cc1F [VX-702]
pIC50 [20]: < 5.70
pIC50 [21]: < 5.70
pIC50 [22]: 6.18
pIC50 [23]: < 5.70
pIC50 [25]: < 5.70
pIC50 [26]: < 5.70
pIC50 [27]: < 5.70
pIC50 [28]: < 5.70
pIC50 [29]: < 5.70
pIC50 [30]: < 5.70
pIC50 [31]: < 5.70
pIC50 [32]: < 5.70
pIC50 [33]: < 5.70
pIC50 [34]: < 5.70
pIC50 [35]: < 5.70
pIC50 [36]: < 5.70
pIC50 [37]: < 5.70
pIC50 [38]: < 5.70
pIC50 [39]: < 5.70
